According to US10238658B2, “1-pyrazolyl-3-(4-((2-anilinopyrimidin-4-yl) oxy) napththalen-1-yl) ureas as p38 MAP kinase inhibitors” (Respivert Limited, priority 2011, dated 2019):

Assays:
[1] = system: TNFα; assay: LPS-stimulated TNFα production in sputum macrophages from COPD; format: cell-based; conditions: Homo sapiens, Macrophage; read-out: TNFα E max, sputum macrophage
Experimental: (§1) Patients with COPD were inhaled with a nebulised solution of 3% (w/v) hypertonic saline using an ultrasonic nebuliser (Devilbiss, Carthage, Mo.) with tidal breathing for 5 min. This procedure was repeated a maximum of three times until enough sputum was obtained. The sputum samples were homogenized and mixed vigorously using a vortex mixer in 0.02% v/v dithiothreitol (DTT) solution. The samples were re-suspended in PBS (40 mL) followed by centrifugation at 1500 rpm at 4° C. for 10 min to obtain sputum cell pellets. The pellets were washed twice with PBS (40 mL). The sputum cells were then re-suspended in macrophage serum-free medium (macrophage-SFM, Life technologies, Paisley, UK; to achieve 2×10^6/well in a 24 well plate) containing 20 U/mL penicillin, 0.02 mg/mL streptomycin and 5 μg/mL amphotericin B and seeded on high bound 96-well plate, followed by incubation for 2 hr at 37° C. and at 5% CO2 to allow the macrophages to attach to the bottom of the plate. The cells on the plate were washed with fresh macrophage-SFM (200 μL/well) to remove neutrophils and other contaminated cells. The adherent cells (mainly sputum macrophages) on the plate were used for further analysis. Sputum induction and isolation were conducted in Quintiles Drug Research Unit at Guys Hospital and ethics approval and written informed consent was obtained by Quintiles.
(§2) Where appropriate, 1 μL of a solution containing either the test compound or reference article at the stated concentrations or alternatively 1 μL of DMSO as the vehicle control was added to each well (200 μL in media) and the cells were incubated for 2 hr. […] After washing with 200 uL wash buffer per well, the beads were resuspended in sheath fluid (150 μL) and analyzed immediately. The level of each analyte in the supernatant was calculated using Xcel Fit software with a 4 or 5-parameter equation using each standard curve. The inhibitions of each cytokine production were calculated at each concentration by comparison with vehicle control. The IC50 values were determined from concentration-inhibition curves using XL-Fit (idbs, Guildford, UK)

[2] = system: IL-8; assay: LPS-stimulated IL-8 production in sputum macrophages from COPD; format: cell-based; conditions: Homo sapiens, Macrophage; read-out: IL-8 E max, sputum macrophage
Experimental: as §1, §2

[3] = system: MIP1α; assay: LPS-stimulated MIP1α production in sputum macrophages from COPD; format: cell-based; conditions: Homo sapiens, Macrophage; read-out: MIP1α E max, sputum macrophage
Experimental: as §1, §2

[4] = system: IL-6; assay: LPS-stimulated IL-6 production in sputum macrophages from COPD; format: cell-based; conditions: Homo sapiens, Macrophage; read-out: IL-6 E max, sputum macrophage
Experimental: Patients with COPD were inhaled with a nebulised solution of 3% (w/v) hypertonic saline using an ultrasonic nebuliser (Devilbiss, Carthage, Mo.) with tidal breathing for 5 min. This procedure was repeated a maximum of three times until enough sputum was obtained. The sputum samples were homogenized and mixed vigorously using a vortex mixer in 0.02% v/v dithiothreitol (DTT) solution. The samples were re-suspended in PBS (40 mL) followed by centrifugation at 1500 rpm at 4° C. for 10 min to obtain sputum cell pellets. The pellets were washed twice with PBS (40 mL). […]
as §2

[5] = system: A/J mice; assay: Cigarette smoke model: macrophage and neutrophil accumulation in BALF; format: in vivo, mouse; conditions: 1.75 μg/mouse (35 μL, bid, i.n.)
Experimental: A/J mice (males, 5 weeks old) were exposed to cigarette smoke (4% cigarette smoke, diluted with air) for 30 min/day for 11 days using a Tobacco Smoke Inhalation Experiment System for small animals (Model SIS-CS; Sibata Scientific Technology, Tokyo, Japan). […] At 12 hr after the last dosing, each of the animals was anesthetized, the trachea cannulated and bronchoalveolar lavage fluid (BALF) was collected. The numbers of alveolar macrophages and neutrophils were determined by FACS analysis (EPICS® ALTRA II, Beckman Coulter, Inc., Fullerton, Calif., USA) using anti-mouse MOMA2 antibody (macrophage) or anti-mouse 7/4 antibody (neutrophil). BALF was centrifuged and the supernatant was collected. The level of keratinocyte chemoattractant (KC; CXCL1) in BALF was quantitated using a Quentikine® mouse KC ELISA kit (R&D systems, Inc., Minneapolis, Minn., USA).

[6] = system: IL-8; assay: TNFα-stimulated IL-8 production in primary bronchial epithelial cells from COPD; format: cell-based; conditions: Homo sapiens, Epithelial cell; read-out: IL-8 E max, bronchial epithelial cell
Experimental: (§3) Primary airway epithelial cells obtained from patients with COPD were purchased from Asterand (Royston, UK), and maintained in bronchial epithelial cell growth media that was prepared by mixing together LHC8 (lnvitrogen) (500 mL), with LHC9 (Invitrogen) (500 mL) and 3 μL of retinoic acid solution (5 mg/mL in neat DMSO. The media was removed by aspiration and fresh BEGM (200 μL) was added to each well. Where appropriate, 1 μL of a solution of the test compound at the state concentrations or 1 μL of DMSO as the vehicle control was added and the cells were incubated for 2 hr. The cells were stimulated with TNFα (50 μL; final concentration 50 ng/mL) and then incubated for 4 hr at 37° C. and 5% CO2. The supernatant was then collected and kept at −20° C.
(§4) The levels of IL-6 and IL-8 were determined by ELISA using R&D Systems' Human IL-6 and IL-8 Duoset® Elisa Kits. The inhibition of IL-6 and IL-8 production was calculated at each concentration by comparison with vehicle control.

[7] = system: IL-6; assay: TNFα-stimulated IL-6 production in primary bronchial epithelial cells from COPD; format: cell-based; conditions: Homo sapiens, Epithelial cell; read-out: IL-6 E max, bronchial epithelial cell
Experimental: as §3, §4

[8] = system: IL-8; assay: Rhinovirus-induced IL-8 release in BEAS2B cells; format: cell-based; conditions: Homo sapiens, BEAS-2B, at 0.04 μg/mL; read-out: HRV IL-8 (BEAS2B) % inhibition
Procedure, shortened: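 BEAS2B cells infected with HRV RV16 at MOI 5 for 2 h at 33 °C, washed, then cultured 72 h; compounds given 2 h before infection and again after washout. IL-8 measured in supernatant by ELISA; surface ICAM-1 by cell-based ELISA (OD450–655), normalised to crystal violet cell count (OD595).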

[9] = system: RSV A2; assay: In vitro RSV virus load (F-protein ELISA) in primary bronchial epithelial cells; format: cell-based, respiratory syncytical virus; conditions: human respiratory syncytial virus, Primary bronchial epithelial cell; at 0.04 μg/mL; read-out: RSV (F-Elisa) (HBEC) % inhibition
Experimental: Normal human bronchial epithelial cells (NHBEC) grown in 96 well plates were infected with RSV A2 (Strain A2, HFA, Salisbury, UK) at an MOI of 0.001 in the LHC8 Media:RPMI-1640 (50:50) containing 15 mM magnesium chloride and incubated for 1 hr at 37° C. for adsorption. The cells were then washed with PBS (3×200 μL), fresh media (200 μL) was added and incubation continued for 4 days. Where appropriate, cells were pre-incubated with the compound or DMSO for 2 hr, and then added again after washout of the virus.
The cells were fixed with 4% formaldehyde in PBS solution (50 μL) for 20 min, washed with washing buffer (3×200 μL; PBS including 0.5% BSA and 0.05% Tween-20) and incubated with blocking solution (5% condensed milk in PBS) for 1 hr. Cells were then washed with washing buffer (3×200 μL) and incubated for 1 hr at RT with anti-RSV (2F7) F-fusion protein antibody (40 μL; mouse monoclonal, lot 798760, Cat. No. ab43812, Abcam) in 5% BSA in PBS-tween). After washing, cells were incubated with an HRP-conjugated secondary antibody solution (50 μL) in 5% BSA in PBS-Tween (lot 00053170, Cat.No. P0447, Dako) and then TMB substrate (50 μL; substrate reagent pack, lot 269472, Cat. No. DY999, R&D Systems, Inc.) was added. This reaction was stopped by the addition of 2N H2SO4 (50 μL) and the resultant signal was determined colorimetrically (OD: 450 nm with a reference wavelength of 655 nm) in a microplate reader (Varioskan® Flash, ThermoFisher Scientific).
After washing with washing buffer, 1% SDS in distilled water (100 μL) was added to each well, and plates were shaken lightly on the shaker for 1 hr prior to reading the absorbance at 595 nm. The measured OD450-655 readings were corrected to the cell number by dividing the OD450-655 by the OD595 readings. The percentage inhibition for each well was calculated and the IC50 value was calculated from the concentration-response curve generated from the serial dilutions of compound.

[10] = system: IL-8; assay: LPS-induced IL-8 release in d-U937 cells; format: cell-based; conditions: Homo sapiens, dU937, dU937 cells
Procedure, shortened: (§5)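 U937 cells differentiated with PMA (100 ng/mL, 48–72 hr) were pre-incubated with compound for 2 hr, then stimulated with E. coli O111:B4 LPS (0.1 μg/mL) for 4 hr. Supernatant cytokine measured by sandwich ELISA; inhibition vs vehicle control at each concentration, REC50 taken from the concentration-response curve.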

[11] = system: HRV16; assay: HRV16 induced CPE in MRC5 cells; format: cell-based; conditions: Human rhinovirus sp., HRV16, MRC5, at 0.04 μg/mL; read-out: HRV CPE (MRC5) % inhibition
Experimental: The supernatants were aspirated, and then fresh media added followed by incubation for 4 days. Where appropriate, cells were pre-incubated with compound or DMSO for 2 hr, and the compounds and DMSO added again after washout of the virus.
The percentage inhibition for each well was calculated. The IC50 value was calculated from the concentration-response curve generated by the serial dilutions of the test compounds.

[12] = system: PBMC; assay: Cell mitosis assay; format: cell-based; conditions: Homo sapiens, read-out: Mitosis Assay % inhibition in PBMC Cells at concn 5 μg/mL
Experimental: Peripheral blood mononucleocytes (PBMCs) from healthy subjects were separated from whole blood (Quintiles, London, UK) using a density gradient (Histopaque®-1077, Sigma-Aldrich, Poole, UK). The PBMCs (3 million cells per sample) were subsequently treated with 2% PHA (Sigma-Aldrich, Poole, UK) for 48 hr, followed by a 20 hr exposure to varying concentrations of test compounds. At 2 hr before collection, PBMCs were treated with demecolcine (0.1 μg/mL; Invitrogen, Paisley, UK,) to arrest cells in metaphase. To observe mitotic cells, PBMCs were permeabilised and fixed by adding Intraprep (50 μL; Beckman Coulter, France), and stained with anti-phospho-histone 3 ([…]; #9701; Cell Signalling, Danvers, Mass.) and propidium iodide (1 mg/mL; Sigma-Aldrich, Poole, UK,) as previously described (Muehlbauer P. A. and Schuler M. J., Mutation Research, 2003, 537:117-130). Fluorescence was observed using an ATTUNE flow cytometer (Invitrogen, Paisley, UK), gating for lymphocytes.

[13] = system: TNFα; assay: LPS-induced TNFα release in d-U937 cells; format: cell-based; conditions: Homo sapiens, dU937, dU937 cells; relative to 10 μg/mL BIRB796; read-out: LPS Induced Release TNFα REC50 (dU937)
Procedure, shortened: as §5

[14] = system: TNFα; assay: LPS-induced TNFα release in THP-1 cells; format: cell-based; conditions: Homo sapiens, THP-1, THP1 cells
Experimental: THP-1 cells, a human monocytic cell line, were stimulated with 3 μg/mL of LPS (from E. Coli; 0111:B4, Sigma) for 4 hr and the supernatant collected for determination of the TNFα concentration by sandwich ELISA (Duo-set, R&D systems). The inhibition of TNFα production was calculated at each concentration by comparison with vehicle control.

Row | IC50 [10] [nM] | EC50 [13] [nM] | IC50 [14] [nM] | SMILES | Emax at 0.1 µg/mL [1] [%] | Emax at 0.1 µg/mL [2] [%] | Emax at 0.1 µg/mL [3] [%] | Emax at 0.1 µg/mL [4] [%] | macrophage accumulation into airways, cigarette smoke model [5] | neutrophil accumulation into airways, cigarette smoke model [5] | Emax at 0.1 µg/mL [6] [%] | Emax at 0.1 µg/mL [7] [%] | inhibition at 0.04 µg/mL [8] [%] | inhibition at 0.04 µg/mL [9] [%] | inhibition at 0.04 µg/mL [11] [%] | inhibition at 5 µg/mL [12] [%]
1 |  |  |  | CCC(=O)O[C@]1(C(=O)SCF)[C@H](C)C[C@H]2[C@@H]3C[C@H](F)C4=CC(=O)C=C[C@]4(C)[C@@]3(F)[C@@H](O)C[C@@]21C [Fluticasone Propionate, fluticasone propionate, reference compound] | 18 | 19 | 20 | 26 | did not inhibit | did not inhibit | 17 | 38 |  |  |  | 
2 | > 1590 | 17 | 30 | CCOc1ccc(Nc2nccc(Oc3ccc(NC(=O)Nc4cc(C(C)(C)C)nn4-c4ccc(C)cc4)c4ccccc34)n2)cc1 [Example 22, 1-(3-(tert-butyl)-1-(p-tolyl)-1H-pyrazol-5-yl)-3-(4-((2-((4-ethoxyphenyl)amino)pyrimidin-4-yl)oxy)naphthalen-1-yl)urea] |  |  |  |  |  |  |  |  | 100 | 78 | 48 | 70.8
